Laboratory results published in ChEMBL document CHEMBL1148496, “Novel alkylpolyaminoguanidines and alkylpolyaminobiguanides with potent antitrypanosomal activity” (Bioorg Med Chem Lett, 2006).
pIC50: −log10 of the molar value.

Columns and labels:
[1] = biological target: T1, Glutathione reductase, mitochondrial (Homo sapiens, UniProt P00390); assay: Inhibition of human glutathione reductase
T1 sequence (P00390 whole entry): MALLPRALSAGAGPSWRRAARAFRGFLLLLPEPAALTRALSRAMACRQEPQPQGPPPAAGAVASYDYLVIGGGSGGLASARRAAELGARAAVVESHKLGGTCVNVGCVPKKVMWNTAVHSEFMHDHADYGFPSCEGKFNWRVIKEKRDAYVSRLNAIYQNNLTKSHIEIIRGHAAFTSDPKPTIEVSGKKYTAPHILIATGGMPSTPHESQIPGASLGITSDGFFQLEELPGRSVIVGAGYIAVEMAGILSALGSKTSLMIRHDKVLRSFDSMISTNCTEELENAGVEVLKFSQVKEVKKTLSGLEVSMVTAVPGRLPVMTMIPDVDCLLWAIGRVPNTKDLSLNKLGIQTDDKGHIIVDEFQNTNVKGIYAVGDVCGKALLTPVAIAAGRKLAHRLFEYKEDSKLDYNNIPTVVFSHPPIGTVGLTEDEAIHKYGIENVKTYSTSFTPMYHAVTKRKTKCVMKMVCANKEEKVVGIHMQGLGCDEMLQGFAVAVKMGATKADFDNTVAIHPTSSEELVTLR

[2] = system: Trypanosoma brucei brucei; assay: Antitrypanosomal activity against Trypanosoma brucei brucei; type: functional, organism-based
Trypanothione reductase = Trypanothione reductase (Trypanosoma cruzi, UniProt P28593); assay: Inhibition of Trypanosoma cruzi TR
Trypanothione reductase, sequence (P28593 whole entry): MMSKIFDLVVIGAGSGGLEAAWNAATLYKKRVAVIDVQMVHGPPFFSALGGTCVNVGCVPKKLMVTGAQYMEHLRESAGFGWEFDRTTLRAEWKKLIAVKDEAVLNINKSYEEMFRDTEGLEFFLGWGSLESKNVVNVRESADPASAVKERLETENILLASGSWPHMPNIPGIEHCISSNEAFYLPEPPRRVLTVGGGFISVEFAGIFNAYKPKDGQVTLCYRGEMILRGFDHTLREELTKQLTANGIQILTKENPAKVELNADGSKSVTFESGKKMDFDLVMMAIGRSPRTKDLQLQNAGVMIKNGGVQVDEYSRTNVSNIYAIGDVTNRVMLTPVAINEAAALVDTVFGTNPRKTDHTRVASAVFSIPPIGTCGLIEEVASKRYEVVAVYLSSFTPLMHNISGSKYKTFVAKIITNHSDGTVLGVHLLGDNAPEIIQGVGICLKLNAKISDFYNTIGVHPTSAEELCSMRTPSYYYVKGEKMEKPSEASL

Row | Compound | pIC50 [1] | pIC50 [2] | pIC50 (Trypanothione reductase)
1 | N=C(NCCCNCCCCNCCCNC(=N)NC(=N)NCCC(c1ccccc1)c1ccccc1)NC(=N)NCCC(c1ccccc1)c1ccccc1 | < 4.00 | 6.72 | 5.53
2 | NC(=NCCCNCCCNCCCN=C(N)NCC(c1ccccc1)c1ccccc1)NCC(c1ccccc1)c1ccccc1 | < 4.00 | 5.69 | 5.44
3 | N=C(NCCCNCCCCCCCNCCCNC(=N)NC(=N)NCC(c1ccccc1)c1ccccc1)NC(=N)NCC(c1ccccc1)c1ccccc1 | < 4.00 | 6.35 | 5.78
4 | N=C(NCCCNCCCNCCCNC(=N)NC(=N)NCCC(c1ccccc1)c1ccccc1)NC(=N)NCCC(c1ccccc1)c1ccccc1 | < 4.00 | 5.75 | 5.43
5 | N=C(NCCCNCCCCNCCCNC(=N)NC(=N)NCC(c1ccccc1)c1ccccc1)NC(=N)NCC(c1ccccc1)c1ccccc1 | < 4.00 | 5.98 | 5.56
6 | N=C(NCCCNCCCCNCCCNC(=N)NCC(c1ccccc1)c1ccccc1)NCC(c1ccccc1)c1ccccc1 | < 4.00 | 5.47 | 5.34
7 | NC(=NCCCNCCCCCCCNCCCN=C(N)NCCC(c1ccccc1)c1ccccc1)NCCC(c1ccccc1)c1ccccc1 | < 4.00 | 6.21 | 5.65

Other lines, results leading:

Row | pIC50 [1] | pIC50 [2] | pIC50 (Trypanothione reductase) | Compound
8 | < 4.00 | 5.62 | 5.53 | N=C(NCCCNCCCCNCCCNC(=N)NCCC(c1ccccc1)c1ccccc1)NCCC(c1ccccc1)c1ccccc1
9 | < 4.00 | 6.21 | 6.02 | N=C(NCCCNCCCCCCCNCCCNC(=N)NC(=N)NCCC(c1ccccc1)c1ccccc1)NC(=N)NCCC(c1ccccc1)c1ccccc1
10 | < 4.00 | 7.05 | 4.16 | NC(=NCCCNCCCCCCCNCCCN=C(N)NCc1ccccc1)NCc1ccccc1
11 | < 4.00 | 6.30 | 5.33 | NC(=NCCCNCCCCCCCNCCCN=C(N)NCC(c1ccccc1)c1ccccc1)NCC(c1ccccc1)c1ccccc1
12 | < 4.00 | 5.71 | 5.29 | N=C(NCCCNCCCNCCCNC(=N)NCCC(c1ccccc1)c1ccccc1)NCCC(c1ccccc1)c1ccccc1
13 | < 4.00 | 6.74 | 5.38 | N=C(NCCCNCCCNCCCNC(=N)NC(=N)NCC(c1ccccc1)c1ccccc1)NC(=N)NCC(c1ccccc1)c1ccccc1
14 | < 4.00 | 6.74 | 4.75 | NC(=NCCCNCCCCCCCNCCCN=C(N)NC1CCCCCC1)NC1CCCCCC1
